Assay results taken from patent publication US10201507B2, “Modulators of intracellular chloride concentration for treating fragile X syndrome” (NEUROCHLORE, priority 2012, dated 2019).
Entries after “also recorded” stand apart in the source; their conditions may differ.

Legend:
CA3 pyramidal cells = test: Single GABAA channel recordings of driving force of GABA (DFGABA) in hippocampal slices, drug applied to slice; type: cell-based, mouse
Experimental: Mice lacking Fmr1 (referred to as Fmr1^−/−) were bred in our animal facility. […] For all experiments, Fmr1^−/− mice were used with wild-type littermates as a control group. The offspring were used for experiments at E18, P0, P2, P4, P7, P9, P15 and P30. Experiments were carried out on offspring of either sex and in a blind manner at E18 and P0.
Experiments were performed on fetuses and neonatal wild type and Fragile X mice from the embryonic day […] to the postnatal day P38 (term is E21). All of the research was performed in compliance with the national guidelines on human care and use of laboratory animals and approved by INSERM.
Hippocampal slices (300-500 μm thick) were prepared using a Microm tissue slicer (International GmbH, Germany) as described previously (Tyzio et al., 2006, 2008). Slices were kept in oxygenated (95% O2/5% CO2) artificial cerebrospinal fluid (ACSF) of the following composition (in mM): NaCl 126, KCl 3.5, CaCl2 2.0, MgCl2 1.3, NaHCO3 25, NaH2PO4 1.2 and glucose 11 (pH 7.4) at room temperature (20-22° C.) at least 1 hour before use.
For recordings, slices were placed into a conventional fully submerged chamber superfused with ACSF at a rate of 2-3 ml/min at room temperature. Patch clamp recordings from visually identified CA3 pyramidal cells in cell-attached configuration were performed using EPC-10 amplifier (HEKA Elektronik Dr. Schulze GmbH, Lambrecht/Pfalz, Germany). Patch pipette solution for recordings of single GABAA channels contained (in mM): NaCl 120, KCl 5, TEA-Cl 20, 4-aminopyridine 5, CaCl2 0.1, MgCl2 10, glucose 10, Hepes-NaOH 10 buffered to pH 7.2-7.3 and GABA 2 μM. Analysis of currents through single channels and current-voltage relationships were performed using Clampfit 9.2 (Axon Instruments, Union City, Calif.). Recordings were digitized (10 kHz) online with Digidata-1200 interface card (Axon Instruments, Union City, Calif.) and analyzed offline with Axon package, MiniAnalysis (S (Synaptsoft, Decatur, Ga.), and Origin (Microcal Software, Northampton, Mass.). […]

FXS mice = test: Isolation-induced ultrasonic vocalizations (USVs) at P8 after maternal pretreatment; type: in vivo, mouse
Description: To induce ultrasonic vocalizations, mouse pups were isolated individually from their mother on postnatal day 8, and were placed into an isolation box (23×28×18 cm) located inside a sound attenuating isolation cubicle (54×57×41 cm; Coulbourn Instruments, Allentown, Pa., USA), and evaluated for ultrasonic vocalizations during a three minute test. An ultrasound microphone (Avisoft UltraSoundGate Condenser microphone capsule […] Bioacoustics, Berlin, Germany), placed in the roof of the box, was sensitive to frequencies of 10 to 250 kHz. Vocalizations were recorded using the Avisoft Recorder software (version 4.2) with a sampling rate of 250 kHz in 16 bit format. For acoustical analysis, recordings were transferred to SASLab Pro (version 5.2; Avisoft Bioacoustics) and a fast Fourier transformation was conducted (512 FFT-length, 100% frame, Hamming window and 75% time window overlap). The accuracy of call detection was verified manually by an educated user. A Pearson correlation coefficient was computed to assess the relationship between Automatic and Manual analysis. There was 0.99 correlations between the two variables. A t postnatal day 8, waveform patterns of calls were examined in 45 sonograms from 4 groups of mice (WT, FXS, WT pretreated, FXS pretreated). Each call was identified as one of 10 distinct categories, and only the sonograms where mice emitted at least 50 calls were used for this evaluation. To test whether depolarizing actions of GABA were associated with neuronal excitation, the effect of the GABAA receptor agonist isoguvacine was tested. […] To test whether maternal treatment with bumetanide before delivery switches the action of GABA from excitatory to inhibitory in offsprings at P15, pregnant females were treated orally 1 day before delivery with bumetanide (2-2.5 mg/kg in drinking water) and juvenile offspring neurons recorded at P15. […] Therefore, excitatory actions of GABA during delivery produce long term deleterious effects on electrophysiological parameters of FXS juvenile neurons. In FXS mice, GABAergic inputs are excitatory and contribute to hyperexcitability of the network. Bumetanide decreases [Cl^-]i and consequently reduces contribution of excitatory GABAergic inputs in the overall network activity. Isolation and Ultrasonic vocalizations were induced in mice to determine behavioral effect of Bumetanide in a model of FXS. An increased probability of emitting downward and chevron calls in FXS pups than age matched WT (P8). This was rescued by maternal bumetanide pretreatment (FIG. 4, table 3). Therefore, elevated [Cl^-]i levels during delivery are involved in the pathogenesis of Fragile X syndrome.

[1] = test system: child with Fragile X syndrome; test: Clinical case study, efficacy scales (ABC, GRAM, CGI); type: in vivo, human; settings: after 90 days, 0.5 mg twice a day
Experimental: This example is a case reports presenting the treatment by bumetanide of a child with Fragile X syndrome. Starting from the 5 Jan. 2011, the child received bumetanide twice a day (0.5 mg morning and 0.5 mg evening) during three months. Several biological tests were made at baseline (D0) and then after 7 days (D7), one month (M1), two months (M2) and three months (M3) of treatment. They checked orthostatic hypotension, allergy, cramps, asthenia, diarrhea, myalgia, arthralgia, vertigo and nausea. Blood tests included γ-glutamyltransferase, transaminases, alkaline phosphatases, glycemia, uric acid and creatine, in addition to blood Na^+ and K^+. Efficacy of the treatment was measured at baseline (D0) and after three months of treatment (M3) using the GRAM scale ([…] Regulation Adaptation Modulation) for analyzing the dysregulation of the activity in a child; the ABC scale (Aberrant Behavior Checklist) for assessing problem behaviors of children and adults with mental retardation; and the CGI scale (Clinical Global Impression) for assessing the clinical amelioration in a patient following a therapeutic treatment.

CCCCNc1cc(C(=O)O)cc(S(N)(=O)=O)c1Oc1ccccc1 [bumetanide]
Effect on DFGABA (in words) (CA3 pyramidal cells; FXS neurons at P0 (birth), oxytocin 1 μM): shift it to hyperpolarization; also recorded: fully blocked the depolarising DFGABA | Effect on DFGABA (in words) (CA3 pyramidal cells; wild type pyramidal cells at P0): increases hyperpolarization | Chevron calls, isolation-induced USVs (FXS mice; P8 FXS mice): 0.6 ± 0.1 (n = 13) | Downward calls, isolation-induced USVs (FXS mice; P8 FXS mice): 10.2 ± 1.4 (n = 13) | Increased probability of downward and chevron calls (in words) (FXS mice; P8 FXS pups): rescued | Chevron calls, isolation-induced USVs (FXS mice; P8 WT mice): 0.5 ± 0.3 (n = 9) | Downward calls, isolation-induced USVs (FXS mice; P8 WT mice): 13.5 ± 2.8 (n = 9) | CGI result [1]: 2 | ABC results (Aberrant Behavior Checklist) ([1]; baseline 41): 27 | GRAM results ([1]; baseline 56): 31
